Like-named read-outs stand apart in the source and are kept apart here. Positions of bridges follow the written chain, without caps; N, C: chain ends. Non-standard residues stand in square brackets, D forms with d. Residues, ends and D or L forms follow the SMILES beside them. Bip = N[C@@H](Cc1ccc(-c2ccccc2)cc1)C(=O)O
Key:
Experiment in all cases: cell-based
hNav1.7 = hNav1.7 (Homo sapiens, UniProt Q15858); type: cell-based; details: read-out: IWQ Use Nav1.7
hNav1.3 = hNav1.3 (Homo sapiens, UniProt Q9NY46); details: IonWorks Quattro, read-out: IWQ Use Nav1.3
hNav1.5 = hNav1.5 (Homo sapiens, UniProt Q14524)
Chain of hNav1.5 (Q14524 whole entry, looked up): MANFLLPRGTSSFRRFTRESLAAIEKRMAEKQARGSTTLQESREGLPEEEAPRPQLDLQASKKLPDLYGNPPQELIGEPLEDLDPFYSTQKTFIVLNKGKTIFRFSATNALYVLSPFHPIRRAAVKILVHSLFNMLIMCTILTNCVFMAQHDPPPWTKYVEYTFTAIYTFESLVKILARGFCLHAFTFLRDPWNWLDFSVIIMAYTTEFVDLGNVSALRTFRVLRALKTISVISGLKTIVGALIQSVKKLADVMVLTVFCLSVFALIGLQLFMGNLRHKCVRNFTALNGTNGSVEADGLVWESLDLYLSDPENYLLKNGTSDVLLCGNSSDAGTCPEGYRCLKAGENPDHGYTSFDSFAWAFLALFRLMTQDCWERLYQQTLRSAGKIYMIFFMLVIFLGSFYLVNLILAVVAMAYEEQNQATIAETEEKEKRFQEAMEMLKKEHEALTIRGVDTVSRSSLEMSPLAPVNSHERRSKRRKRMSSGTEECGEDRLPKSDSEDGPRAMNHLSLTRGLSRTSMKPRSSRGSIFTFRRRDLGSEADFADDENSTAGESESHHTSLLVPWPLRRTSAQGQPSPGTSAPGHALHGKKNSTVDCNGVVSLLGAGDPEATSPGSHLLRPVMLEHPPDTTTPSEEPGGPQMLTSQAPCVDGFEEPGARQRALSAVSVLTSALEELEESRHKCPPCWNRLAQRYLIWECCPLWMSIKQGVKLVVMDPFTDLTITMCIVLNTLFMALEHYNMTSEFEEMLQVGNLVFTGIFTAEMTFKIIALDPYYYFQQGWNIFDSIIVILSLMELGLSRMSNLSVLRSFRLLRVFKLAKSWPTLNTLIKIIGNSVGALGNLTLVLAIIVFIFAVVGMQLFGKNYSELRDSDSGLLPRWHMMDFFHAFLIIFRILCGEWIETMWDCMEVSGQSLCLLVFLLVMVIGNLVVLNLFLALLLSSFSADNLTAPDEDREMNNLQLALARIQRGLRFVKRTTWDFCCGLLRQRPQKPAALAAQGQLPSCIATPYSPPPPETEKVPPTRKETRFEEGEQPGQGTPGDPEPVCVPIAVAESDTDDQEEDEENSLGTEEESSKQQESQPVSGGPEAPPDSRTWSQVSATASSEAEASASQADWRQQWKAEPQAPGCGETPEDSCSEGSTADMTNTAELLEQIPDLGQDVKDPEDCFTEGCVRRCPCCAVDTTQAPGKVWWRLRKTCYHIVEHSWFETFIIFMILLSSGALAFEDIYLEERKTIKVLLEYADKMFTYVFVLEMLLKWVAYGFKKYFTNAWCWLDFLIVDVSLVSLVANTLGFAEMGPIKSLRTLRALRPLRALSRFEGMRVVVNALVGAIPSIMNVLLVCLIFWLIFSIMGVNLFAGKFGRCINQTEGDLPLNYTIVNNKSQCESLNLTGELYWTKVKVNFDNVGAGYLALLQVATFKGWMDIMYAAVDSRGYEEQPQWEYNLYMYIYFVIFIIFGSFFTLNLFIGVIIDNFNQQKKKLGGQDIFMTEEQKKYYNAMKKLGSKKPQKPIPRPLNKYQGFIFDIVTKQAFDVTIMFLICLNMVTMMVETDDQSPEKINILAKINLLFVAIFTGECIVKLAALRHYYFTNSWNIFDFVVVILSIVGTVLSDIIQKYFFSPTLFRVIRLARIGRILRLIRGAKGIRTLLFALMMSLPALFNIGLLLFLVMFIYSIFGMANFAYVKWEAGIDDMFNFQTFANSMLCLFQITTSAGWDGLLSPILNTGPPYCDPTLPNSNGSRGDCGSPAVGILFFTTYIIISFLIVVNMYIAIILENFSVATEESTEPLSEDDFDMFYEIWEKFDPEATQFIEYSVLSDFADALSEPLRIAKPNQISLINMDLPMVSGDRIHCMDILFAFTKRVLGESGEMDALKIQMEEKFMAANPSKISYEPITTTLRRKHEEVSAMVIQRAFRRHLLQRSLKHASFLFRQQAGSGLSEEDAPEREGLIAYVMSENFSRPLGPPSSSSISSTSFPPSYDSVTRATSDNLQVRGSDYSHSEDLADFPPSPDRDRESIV

[1] = IonWorks Quattro, use-dependent block, hNav1.7
[2] = IonWorks Quattro, clamped to −110 mV, depolarized to −10 mV, 5 min after compound, n=2

Chain of hNav1.7 (Q15858 whole entry, looked up): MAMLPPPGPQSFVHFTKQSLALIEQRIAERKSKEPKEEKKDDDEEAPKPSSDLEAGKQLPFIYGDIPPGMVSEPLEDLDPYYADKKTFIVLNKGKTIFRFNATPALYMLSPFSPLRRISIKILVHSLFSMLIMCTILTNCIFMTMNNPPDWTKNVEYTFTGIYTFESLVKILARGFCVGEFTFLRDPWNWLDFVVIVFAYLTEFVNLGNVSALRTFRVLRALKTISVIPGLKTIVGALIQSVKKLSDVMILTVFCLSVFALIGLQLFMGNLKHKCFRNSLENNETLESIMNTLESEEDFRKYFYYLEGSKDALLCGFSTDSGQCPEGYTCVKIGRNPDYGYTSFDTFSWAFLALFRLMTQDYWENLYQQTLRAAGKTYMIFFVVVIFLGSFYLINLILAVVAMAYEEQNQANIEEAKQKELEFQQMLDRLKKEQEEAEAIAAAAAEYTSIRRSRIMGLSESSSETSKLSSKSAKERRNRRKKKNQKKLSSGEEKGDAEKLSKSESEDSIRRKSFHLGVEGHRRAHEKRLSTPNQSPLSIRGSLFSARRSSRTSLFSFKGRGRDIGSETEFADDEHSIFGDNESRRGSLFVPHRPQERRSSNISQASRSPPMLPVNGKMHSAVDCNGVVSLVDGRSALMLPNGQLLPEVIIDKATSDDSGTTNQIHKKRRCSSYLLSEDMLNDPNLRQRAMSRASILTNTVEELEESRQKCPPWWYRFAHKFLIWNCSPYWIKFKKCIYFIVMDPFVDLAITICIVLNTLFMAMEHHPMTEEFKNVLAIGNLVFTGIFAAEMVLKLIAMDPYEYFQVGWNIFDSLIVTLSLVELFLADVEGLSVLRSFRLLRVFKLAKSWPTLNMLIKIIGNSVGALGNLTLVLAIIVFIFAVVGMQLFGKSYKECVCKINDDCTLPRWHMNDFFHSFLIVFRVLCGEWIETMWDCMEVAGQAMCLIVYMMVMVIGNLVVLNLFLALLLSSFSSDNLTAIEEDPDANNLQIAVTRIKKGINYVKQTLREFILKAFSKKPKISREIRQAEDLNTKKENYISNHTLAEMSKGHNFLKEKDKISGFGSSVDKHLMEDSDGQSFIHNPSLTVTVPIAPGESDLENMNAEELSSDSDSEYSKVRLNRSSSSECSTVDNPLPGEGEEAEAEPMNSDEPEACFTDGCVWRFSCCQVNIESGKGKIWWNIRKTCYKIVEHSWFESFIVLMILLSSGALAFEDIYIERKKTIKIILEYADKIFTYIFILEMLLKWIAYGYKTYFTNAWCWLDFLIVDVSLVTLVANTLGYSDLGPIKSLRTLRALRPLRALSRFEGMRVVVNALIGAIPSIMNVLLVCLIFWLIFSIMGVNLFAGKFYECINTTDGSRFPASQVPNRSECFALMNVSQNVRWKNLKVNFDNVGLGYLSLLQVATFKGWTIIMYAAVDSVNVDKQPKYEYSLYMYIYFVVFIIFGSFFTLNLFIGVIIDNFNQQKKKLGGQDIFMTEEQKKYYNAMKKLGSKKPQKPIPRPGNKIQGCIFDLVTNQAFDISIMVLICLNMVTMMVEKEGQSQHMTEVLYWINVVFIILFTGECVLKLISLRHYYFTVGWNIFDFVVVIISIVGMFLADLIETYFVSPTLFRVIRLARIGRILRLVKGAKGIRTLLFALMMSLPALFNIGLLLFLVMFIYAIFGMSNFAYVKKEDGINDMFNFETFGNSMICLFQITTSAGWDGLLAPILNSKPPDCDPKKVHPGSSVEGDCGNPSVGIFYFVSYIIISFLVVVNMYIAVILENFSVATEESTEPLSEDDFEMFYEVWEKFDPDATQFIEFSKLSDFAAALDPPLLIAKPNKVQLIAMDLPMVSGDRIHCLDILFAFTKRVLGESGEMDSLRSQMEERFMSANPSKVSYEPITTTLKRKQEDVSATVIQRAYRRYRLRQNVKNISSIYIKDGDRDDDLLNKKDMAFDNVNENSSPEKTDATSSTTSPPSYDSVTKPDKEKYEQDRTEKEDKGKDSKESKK

Compound CC[C@H](C)[C@@H]1NC(=O)[C@@H]2CSSC[C@@H]3NC(=O)[C@H](C(C)C)NC(=O)[C@H](CC(C)C)NC(=O)[C@H](CC(N)=O)NC(=O)[C@@H]4CCCN4C(=O)[C@H](CCCNC(=N)N)NC(=O)[C@H](CSSC[C@H](NC(=O)[C@@H](N)CC(=O)O)C(=O)N[C@@H](CC(C)C)C(=O)NCC(=O)N[C@@H](C)C(=O)N[C@@H](CC[S+](C)[O-])C(=O)N[C@@H](CCCNC(=N)N)C(=O)N[C@@H](CCCCN)C(=O)N2)NC(=O)[C@H](CSSC[C@@H](C(=O)N[C@@H](CCCCN)C(=O)N[C@@H](Cc2ccc(O)cc2)C(=O)N[C@H](C(=O)N[C@@H](Cc2ccccc2)C(N)=O)C(C)C)NC(=O)[C@H](Cc2c[nH]c4ccccc24)NC(=O)[C@H](CCCCN)NC(=O)[C@H](Cc2c[nH]cn2)NC(=O)[C@H]([C@@H](C)O)NC(=O)[C@H](CCCNC(=N)N)NC(=O)[C@H](CO)NC3=O)NC(=O)[C@H](CCCCN)NC(=O)[C@H](CC(=O)O)NC(=O)[C@H](CC(N)=O)NC(=O)[C@H](CC(=O)O)NC(=O)[C@@H]2CCCN2C1=O (single isomer, unassigned) [compound 791] has an IC50 (hNav1.7; [1]) greater than 5 µM, an IC50 (hNav1.3; use-dependent block, hNav1.3) greater than 5 µM and an IC50 (hNav1.5; IonWorks Quattro, use-dependent block, hNav1.5, read-out: IWQ Use Nav1.5) of 39.5 µM.
With CC[C@H](C)[C@@H]1NC(=O)[C@@H]2CSSC[C@@H]3NC(=O)[C@H](C(C)C)NC(=O)[C@H](CC(C)C)NC(=O)[C@H](CC(N)=O)NC(=O)[C@@H]4CCCN4C(=O)[C@H](CCCNC(=N)N)NC(=O)[C@H](CSSC[C@H](NC(=O)[C@@H](N)CC(=O)O)C(=O)N[C@@H](CC(C)C)C(=O)NCC(=O)N[C@@H](CCC(=O)O)C(=O)N[C@@H](CCSC)C(=O)N[C@@H](CCCNC(=N)N)C(=O)N[C@@H](CCCCN)C(=O)N2)NC(=O)[C@H](CSSC[C@@H](C(=O)N[C@@H](CCCCN)C(=O)N[C@@H](Cc2ccc(O)cc2)C(=O)N[C@H](C(=O)N[C@@H](Cc2ccccc2)C(N)=O)C(C)C)NC(=O)[C@H](Cc2c[nH]c4ccccc24)NC(=O)[C@H](CCCCN)NC(=O)[C@H](Cc2cnc[nH]2)NC(=O)[C@H]([C@@H](C)O)NC(=O)[C@H](CCCNC(=N)N)NC(=O)[C@H](CO)NC3=O)NC(=O)[C@H](CCCCN)NC(=O)[C@H](CC(=O)O)NC(=O)[C@H](CC(N)=O)NC(=O)[C@H](CC(=O)O)NC(=O)[C@@H]2CCCN2C1=O [SEQ ID NO: 143] (H-DCLGEMRKCIPDNDKCCRPNLVCSRTHKWCKYVF-NH2; disulfide 2-17, 9-23, 16-30) the IC50 (hNav1.7; [2]) was 17.7 µM and the IC50 (hNav1.5; IWQ Use Nav1.5) was 10 µM.
For CC[C@H](C)[C@@H]1NC(=O)[C@@H]2CSSC[C@@H]3NC(=O)[C@H](C(C)C)NC(=O)[C@H](CC(C)C)NC(=O)[C@H](CC(N)=O)NC(=O)[C@@H]4CCCN4C(=O)[C@H](CCCNC(=N)N)NC(=O)[C@H](CSSC[C@H](NC(=O)[C@@H](N)CC(=O)O)C(=O)N[C@@H](CC(C)C)C(=O)NCC(=O)N[C@@H](Cc4ccccc4)C(=O)N[C@@H](Cc4ccc(I)cc4)C(=O)N[C@@H](CCCNC(=N)N)C(=O)N[C@@H](CCCCN)C(=O)N2)NC(=O)[C@H](CSSC[C@@H](C(=O)N[C@@H](CCCCN)C(=O)N[C@@H](Cc2ccc(O)cc2)C(=O)N[C@H](C(=O)N[C@@H](Cc2ccccc2)C(N)=O)C(C)C)NC(=O)[C@H](Cc2c[nH]c4ccccc24)NC(=O)[C@H](CCCCN)NC(=O)[C@H](Cc2c[nH]cn2)NC(=O)[C@H]([C@@H](C)O)NC(=O)[C@H](CCCNC(=N)N)NC(=O)[C@H](CO)NC3=O)NC(=O)[C@H](CCCCN)NC(=O)[C@H](CC(=O)O)NC(=O)[C@H](CC(N)=O)NC(=O)[C@H](CC(=O)O)NC(=O)[C@@H]2CCCN2C1=O [SEQ ID NO: 291], the IC50 (hNav1.7; [2]) was 0.02 µM and the IC50 (hNav1.5; IonWorks Quattro, clamped to −110 mV, depolarized to −10 mV, 5 min after compound, n=2, read-out: IWQ Use Nav1.5) was 0.95 µM.
CC[C@H](C)[C@@H]1NC(=O)[C@@H]2CSSC[C@@H]3NC(=O)[C@H](C(C)C)NC(=O)[C@H](CC(C)C)NC(=O)[C@H](CC(N)=O)NC(=O)[C@@H]4CCCN4C(=O)[C@H](CCCNC(=N)N)NC(=O)[C@H](CSSC[C@H](NC(=O)[C@@H](N)CC(=O)O)C(=O)N[C@@H](CC(C)C)C(=O)NCC(=O)N[C@@H](Cc4ccccc4)C(=O)N[C@@H](CCSC)C(=O)N[C@@H](CCCNC(=N)N)C(=O)N[C@@H](CCCCN)C(=O)N2)NC(=O)[C@H](CSSC[C@@H](C(=O)N[C@@H](CCCCN)C(=O)N[C@@H](Cc2ccc(O)cc2)C(=O)N[C@H](C(=O)N[C@@H](Cc2ccccc2)C(N)=O)C(C)C)NC(=O)[C@H](Cc2c[nH]c4ccccc24)NC(=O)[C@H](CC(=O)O)NC(=O)[C@H](Cc2c[nH]cn2)NC(=O)[C@H]([C@@H](C)O)NC(=O)[C@H](CCCNC(=N)N)NC(=O)[C@H](CO)NC3=O)NC(=O)[C@H](CCCCN)NC(=O)[C@H](CC(=O)O)NC(=O)[C@H](CC(N)=O)NC(=O)[C@H](CC(=O)O)NC(=O)[C@@H]2CCCN2C1=O [SEQ ID NO: 750, [Asp28]GpTx-1] (H-DCLGFMRKCIPDNDKCCRPNLVCSRTHDWCKYVF-NH2; disulfide 2-17, 9-23, 16-30) showed an IC50 (hNav1.7; [1]) of 0.73 µM and an IC50 (hNav1.5; read-out: IWQ Use Nav1.5) of 37.9 µM.
Compound CC[C@H](C)[C@@H]1NC(=O)[C@@H]2CSSC[C@@H]3NC(=O)[C@H](C(C)C)NC(=O)[C@H](CC(C)C)NC(=O)[C@H](CC(N)=O)NC(=O)[C@@H]4CCCN4C(=O)[C@H](CCCNC(=N)N)NC(=O)[C@H](CSSC[C@H](NC(=O)[C@@H](N)CC(=O)O)C(=O)N[C@@H](CC(C)C)C(=O)NCC(=O)N[C@@H](Cc4ccccc4)C(=O)N[C@@H](CCSC)C(=O)N[C@@H](CCCNC(=N)N)C(=O)N[C@@H](CCCCN)C(=O)N2)NC(=O)[C@H](CSSC[C@@H](C(=O)N[C@@H](CCCCN)C(=O)N[C@@H](Cc2ccc(O)cc2)C(=O)N[C@H](C(=O)N[C@@H](Cc2ccccc2)C(N)=O)C(C)C)NC(=O)[C@H](Cc2ccccc2)NC(=O)[C@H](CCCCN)NC(=O)[C@H](Cc2c[nH]cn2)NC(=O)[C@H]([C@@H](C)O)NC(=O)[C@H](CCCNC(=N)N)NC(=O)[C@H](CO)NC3=O)NC(=O)[C@H](CCCCN)NC(=O)[C@H](CC(=O)O)NC(=O)[C@H](CC(N)=O)NC(=O)[C@H](CC(=O)O)NC(=O)[C@@H]2CCCN2C1=O [compound 112] (H-DCLGFMRKCIPDNDKCCRPNLVCSRTHKFCKYVF-NH2; disulfide 2-17, 9-23, 16-30) has an IC50 (hNav1.7; Table 24, IonWorks Quattro, use, […]) of 2.18 µM and an IC50 (hNav1.5; Table 24, IonWorks Quattro, use, […], read-out: IWQ Use Nav1.5) of 6.21 µM.
In the case of CSCC[C@@H]1NC(=O)[C@H](Cc2ccccc2)NC(=O)CNC(=O)[C@H](CC(C)C)NC(=O)[C@@H](NC(=O)[C@@H](N)CC(=O)O)CSSC[C@@H]2NC(=O)[C@@H]3CSSC[C@@H](C(=O)N[C@@H](CCCCN)C(=O)N[C@@H](Cc4ccc(O)cc4)C(=O)N[C@H](C(=O)N[C@@H](Cc4ccccc4)C(N)=O)C(C)C)NC(=O)[C@H](Cc4c[nH]c5ccccc45)NC(=O)[C@H](CCCCN)NC(=O)[C@H](Cc4c[nH]cn4)NC(=O)[C@H]([C@@H](C)O)NC(=O)[C@H](CCCNC(=N)N)NC(=O)[C@H](CO)NC(=O)[C@H](CSSC[C@H](NC(=O)[C@H](CCCCN)NC(=O)[C@H](CCCNC(=N)N)NC1=O)C(=O)N[C@@H](CCSC)C(=O)N1CCC[C@H]1C(=O)N[C@@H](CC(=O)O)C(=O)N[C@@H](CC(N)=O)C(=O)N[C@@H](CC(=O)O)C(=O)N[C@@H](CCCCN)C(=O)N3)NC(=O)[C@H](C(C)C)NC(=O)[C@H](CC(C)C)NC(=O)[C@H](CC(N)=O)NC(=O)[C@@H]1CCCN1C(=O)[C@H](CCCNC(=N)N)NC2=O [compound 307] (H-DCLGFMRKCMPDNDKCCRPNLVCSRTHKWCKYVF-NH2; disulfide 2-17, 9-23, 16-30), the IC50 (hNav1.7) is reported as 0.09 µM and the IC50 (hNav1.5; IonWorks Quattro, Use, read-out: IWQ Use Nav1.5) is reported as 3.38 µM.
Work on CC[C@H](C)[C@@H]1NC(=O)[C@@H]2CSSC[C@@H]3NC(=O)[C@H](C(C)C)NC(=O)[C@H](CC(C)C)NC(=O)[C@H](CC(N)=O)NC(=O)[C@@H]4CCCN4C(=O)[C@H](CCCNC(=N)N)NC(=O)[C@H](CSSC[C@H](NC(=O)[C@@H](N)CC(=O)O)C(=O)N[C@@H](CC(C)C)C(=O)NCC(=O)N[C@@H](Cc4ccccc4)C(=O)N[C@@H](CCSC)C(=O)N[C@@H](CCCNC(=N)N)C(=O)N[C@@H](CCCCN)C(=O)N2)NC(=O)[C@H](CSSC[C@@H](C(=O)N[C@@H](CCCCN)C(=O)N[C@@H](Cc2ccc(-c4ccccc4)cc2)C(=O)N[C@H](C(=O)N[C@@H](Cc2ccccc2)C(N)=O)C(C)C)NC(=O)[C@H](Cc2c[nH]c4ccccc24)NC(=O)[C@H](CCCCN)NC(=O)[C@H](Cc2c[nH]cn2)NC(=O)[C@H]([C@@H](C)O)NC(=O)[C@H](CCCNC(=N)N)NC(=O)[C@H](CO)NC3=O)NC(=O)[C@H](CCCCN)NC(=O)[C@H](CC(=O)O)NC(=O)[C@H](CC(N)=O)NC(=O)[C@H](CC(=O)O)NC(=O)[C@@H]2CCCN2C1=O [compound 376] (H-DCLGFMRKCIPDNDKCCRPNLVCSRTHKWCK[Bip]VF-NH2; disulfide 2-17, 9-23, 16-30) yielded an IC50 (hNav1.7; Table 25, IonWorks Quattro, use, […]) of 0.03 µM and an IC50 (hNav1.5; Table 25, IonWorks Quattro, use, […], read-out: IWQ Use Nav1.5) of 2.9 µM.
Work on CC[C@H](C)[C@@H]1NC(=O)[C@@H]2CSSC[C@@H]3NC(=O)[C@H](C(C)C)NC(=O)[C@H](CC(C)C)NC(=O)[C@H](CC(N)=O)NC(=O)[C@@H]4CCCN4C(=O)[C@H](CCCNC(=N)N)NC(=O)[C@H](CSSC[C@H](NC(=O)[C@@H](N)CC(=O)O)C(=O)N[C@@H](CC(C)C)C(=O)NCC(=O)N[C@@H](Cc4ccccc4)C(=O)N[C@@H](CCSC)C(=O)N[C@@H](CCCNC(=N)N)C(=O)N[C@@H](CCCCN)C(=O)N2)NC(=O)[C@H](CSSC[C@@H](C(=O)N[C@@H](CCCCN)C(=O)N[C@@H](Cc2ccc(O)cc2)C(N)=O)NC(=O)[C@H](Cc2c[nH]c4ccccc24)NC(=O)[C@H](CCCCN)NC(=O)[C@H](Cc2cnc[nH]2)NC(=O)[C@H]([C@@H](C)O)NC(=O)[C@H](CCCNC(=N)N)NC(=O)[C@H](CO)NC3=O)NC(=O)[C@H](CCCCN)NC(=O)[C@H](CC(=O)O)NC(=O)[C@H](CC(N)=O)NC(=O)[C@H](CC(=O)O)NC(=O)[C@@H]2CCCN2C1=O [compound 416] (H-DCLGFMRKCIPDNDKCCRPNLVCSRTHKWCKY-NH2; disulfide 2-17, 9-23, 16-30) yielded an IC50 (hNav1.3; use-dependent, […]) of 0.88 µM and an IC50 (hNav1.5; IonWorks Quattro, use-dependent, […], read-out: IWQ Use Nav1.5) of 8.64 µM.

Reference: patent US9340590B2 (priority 2011, dated 2016)
